Among the data in patent US20250170141A1, “MRGPRX2 MODULATORS AND RELATED METHODS OF TREATMENT” (Escient Pharmaceuticals, Inc., priority 2023, published 2025) are IC50 values, retold here.

This test addresses T1, human MRGPRX2 (Homo sapiens, UniProt Q96LB1).
T1 construct: expressed in transfected cells; host or cells: CHO cells, stably transfected (G418 and Hygromycin B selection)
T1 sequence (Q96LB1 1-330): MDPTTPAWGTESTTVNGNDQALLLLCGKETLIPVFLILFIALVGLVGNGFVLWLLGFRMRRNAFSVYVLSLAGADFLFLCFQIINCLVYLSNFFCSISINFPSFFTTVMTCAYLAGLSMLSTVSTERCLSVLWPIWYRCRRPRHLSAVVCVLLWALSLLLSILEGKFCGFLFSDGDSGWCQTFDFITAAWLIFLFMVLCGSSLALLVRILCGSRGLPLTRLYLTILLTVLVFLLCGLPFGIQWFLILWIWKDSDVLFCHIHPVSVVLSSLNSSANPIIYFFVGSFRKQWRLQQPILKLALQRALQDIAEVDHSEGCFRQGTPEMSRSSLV
The experiment in a line: MRGPRX2 activity: IP-One Gq HTRF assay in CHO cells, antagonism versus 0.3 uM Cortistatin-14. It is filed as cell-based. To be noted: versus 0.3 uM Cortistatin-14 agonist, CHO cells expressing human MRGPRX2, read-out: MRGPRX2 Antagonist Activity. The method in brief:
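CHO cells stably expressing human MRGPRX2 were treated with a 10-point compound curve (30 uM top, 1:3) plus 0.3 μM Cortistatin-14 in LiCl-containing Tris buffer, pH 8. Incubation was 1 h at 37 °C then 1 h at room temperature; IP-1 was detected by HTRF and IC50 came from the HTRF ratio.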

As for `O=S1(=O)N=C(NCc2ccccc2F)Nc2c(Cc3ccccc3)cccc21` [Compound 6-3, 5-benzyl-3-((2-fluorobenzyl)amino)-4H-benzo[e][1,2,4]thiadiazine 1,1-dioxide], the IC50 was under 100 nM. Under `O=S1(=O)N=C(NCc2ccccc2F)Nc2c(Cc3c(Cl)cccc3Cl)cccc21` [Compound 6-5, 5-(2,6-dichlorobenzyl)-3-((2-fluorobenzyl)amino)-4H-benzo[e][1,2,4]thiadiazine 1,1-dioxide] stands under 100 nM; under `O=S1(=O)N=C(NCc2ccccc2F)Nc2c(Cc3ccccc3F)cccc21` [Compound 6-6, 5-(2-fluorobenzyl)-3-((2-fluorobenzyl)amino)-4H-benzo[e][1,2,4]thiadiazine 1,1-dioxide], under 100 nM.

With `Cc1ccccc1Cc1cccc2c1NC(NCc1ccccc1F)=NS2(=O)=O` [Compound 6-7, 3-((2-fluorobenzyl)amino)-5-(2-methylbenzyl)-4H-benzo[e][1,2,4]thiadiazine 1,1-dioxide], the IC50 is under 100 nM. Under `O=S1(=O)N=C(NCc2ccccc2F)Nc2c(Cc3cccc(F)c3)cccc21` [Compound 6-8, 5-(3-fluorobenzyl)-3-((2-fluorobenzyl)amino)-4H-benzo[e][1,2,4]thiadiazine 1,1-dioxide] stands under 100 nM; under `COc1cccc(Cc2cccc3c2NC(NCc2ccccc2F)=NS3(=O)=O)c1` [Compound 6-9, 3-((2-fluorobenzyl)amino)-5-(3-methoxybenzyl)-4H-benzo[e][1,2,4]thiadiazine 1,1-dioxide], under 100 nM. Under `Cc1cccc(Cc2cccc3c2NC(NCc2ccccc2F)=NS3(=O)=O)c1` [Compound 6-10, 3-((2-fluorobenzyl)amino)-5-(3-methylbenzyl)-4H-benzo[e][1,2,4]thiadiazine 1,1-dioxide] stands under 100 nM; under `O=S1(=O)N=C(NCc2ccccc2F)Nc2c(Cc3cccc(Cl)c3)cccc21` [Compound 6-11, 5-(3-chlorobenzyl)-3-((2-fluorobenzyl)amino)-4H-benzo[e][1,2,4]thiadiazine 1,1-dioxide], under 100 nM. Under `N#Cc1cccc(Cc2cccc3c2NC(NCc2ccccc2F)=NS3(=O)=O)c1` [Compound 6-12, 3-((3-((2-fluorobenzyl)amino)-1,1-dioxido-4H-benzo[e][1,2,4]thiadiazin-5-yl)methyl)benzonitrile] stands under 100 nM; under `O=S1(=O)N=C(NCc2ccccc2F)Nc2c(Cc3ccc(Cl)cc3)cccc21` [Compound 6-13, 5-(4-chlorobenzyl)-3-((2-fluorobenzyl)amino)-4H-benzo[e][1,2,4]thiadiazine 1,1-dioxide], 100 to 500 nM. On to `O=S1(=O)N=C(NCc2ccccc2F)Nc2c(Cc3ccc(F)cc3)cccc21` [Compound 6-14, 5-(4-fluorobenzyl)-3-((2-fluorobenzyl)amino)-4H-benzo[e][1,2,4]thiadiazine 1,1-dioxide], for which the IC50 is under 100 nM. The figure for `COc1ccc(Cc2cccc3c2NC(NCc2ccccc2F)=NS3(=O)=O)cc1` [Compound 6-15, 3-((2-fluorobenzyl)amino)-5-(4-methoxybenzyl)-4H-benzo[e][1,2,4]thiadiazine 1,1-dioxide] is 100 to 500 nM; for `Cc1ccc(Cc2cccc3c2NC(NCc2ccccc2F)=NS3(=O)=O)cc1` [Compound 6-16, 3-((2-fluorobenzyl)amino)-5-(4-methylbenzyl)-4H-benzo[e][1,2,4]thiadiazine 1,1-dioxide] it is 100 to 500 nM; for `Cc1cccc(C)c1Cc1cccc2c1NC(NCc1ccccc1F)=NS2(=O)=O` [Compound 6-17, 5-(2,6-dimethylbenzyl)-3-((2-fluorobenzyl)amino)-4H-benzo[e][1,2,4]thiadiazine 1,1-dioxide] it is under 100 nM.

For the compound `O=S1(=O)N=C(NCc2ccccc2F)Nc2c(CCc3ccccc3)cccc21` [Compound 6-18, 3-((2-fluorobenzyl)amino)-5-phenethyl-4H-benzo[e][1,2,4]thiadiazine 1,1-dioxide], the IC50 was under 100 nM. Turning to `O=S1(=O)N=C(NCc2ccccc2F)Nc2c(C3(c4ccccc4)CC3)cccc21` [Compound 6-19, 3-((2-fluorobenzyl)amino)-5-(1-phenylcyclopropyl)-4H-benzo[e][1,2,4]thiadiazine 1,1-dioxide], the IC50 was under 100 nM. As to `CC(c1cccc(F)c1Cl)c1c(F)ccc2c1NC(NCc1ncccc1F)=NS2(=O)=O` (centres unmarked) [Compound 7-1, 5-(1-(2-chloro-3-fluorophenyl)ethyl)-6-fluoro-3-(((3-fluoropyridin-2-yl)methyl)amino)-4H-benzo[e][1,2,4]thiadiazine 1,1-dioxide], the IC50 is under 100 nM. The figure for `Cc1c(F)cccc1CNC1=NS(=O)(=O)c2ccc(F)c(C(C)c3cccc(F)c3Cl)c2N1` (centres unmarked) [Compound 7-2, 5-(1-(2-chloro-3-fluorophenyl)ethyl)-6-fluoro-3-((3-fluoro-2-methylbenzyl)amino)-4H-benzo[e][1,2,4]thiadiazine 1,1-dioxide] is under 100 nM; for `CC(c1ccccc1F)c1c(F)ccc2c1NC(NCc1cccnc1)=NS2(=O)=O` (centres unmarked) [Compound 7-3, 6-fluoro-5-(1-(2-fluorophenyl)ethyl)-3-((pyridin-3-ylmethyl)amino)-4H-benzo[e][1,2,4]thiadiazine 1,1-dioxide] it is 100 to 500 nM. As for `CC(c1ccccc1F)c1c(F)ccc2c1NC(NCc1ccccc1)=NS2(=O)=O` (centres unmarked) [Compound 7-4, 3-(benzylamino)-6-fluoro-5-(1-(2-fluorophenyl)ethyl)-4H-benzo[e][1,2,4]thiadiazine 1,1-dioxide], the IC50 was under 100 nM. Under `CC(c1ccccc1F)c1c(F)ccc2c1NC(NCc1ccccc1F)=NS2(=O)=O` (centres unmarked) [Compound 7-5, 6-fluoro-3-((2-fluorobenzyl)amino)-5-(1-(2-fluorophenyl)ethyl)-4H-benzo[e][1,2,4]thiadiazine 1,1-dioxide] stands under 100 nM; under `CC(c1ccccc1F)c1c(F)ccc2c1NC(NCc1ccc(F)cc1F)=NS2(=O)=O` (centres unmarked) [Compound 7-6, 3-((2,4-difluorobenzyl)amino)-6-fluoro-5-(1-(2-fluorophenyl)ethyl)-4H-benzo[e][1,2,4]thiadiazine 1,1-dioxide], under 100 nM; under `CC(c1ccccc1F)c1c(F)ccc2c1NC(NCc1ccc(F)c(Cl)c1)=NS2(=O)=O` (centres unmarked) [Compound 7-7, 3-((3-chloro-4-fluorobenzyl)amino)-6-fluoro-5-(1-(2-fluorophenyl)ethyl)-4H-benzo[e][1,2,4]thiadiazine 1,1-dioxide], under 100 nM. Under `CC(c1ccccc1F)c1c(F)ccc2c1NC(NCc1cc(Cl)cc(Cl)c1)=NS2(=O)=O` (centres unmarked) [Compound 7-8, 3-((3,5-dichlorobenzyl)amino)-6-fluoro-5-(1-(2-fluorophenyl)ethyl)-4H-benzo[e][1,2,4]thiadiazine 1,1-dioxide] stands under 100 nM. The figure for `COc1ccccc1CNC1=NS(=O)(=O)c2ccc(F)c(C(C)c3ccccc3F)c2N1` (centres unmarked) [Compound 7-9, 6-fluoro-5-(1-(2-fluorophenyl)ethyl)-3-((2-methoxybenzyl)amino)-4H-benzo[e][1,2,4]thiadiazine 1,1-dioxide] is under 100 nM; for `CC(c1ccccc1Cl)c1c(F)ccc2c1NC(NCc1ncccc1F)=NS2(=O)=O` (centres unmarked) [Compound 8-1, 5-(1-(2-chlorophenyl)ethyl)-6-fluoro-3-(((3-fluoropyridin-2-yl)methyl)amino)-4H-benzo[e][1,2,4]thiadiazine 1,1-dioxide] it is under 100 nM.
